Assay: Whitening effect evaluation test (residual ratio of stain on tea-stained dry apatite)
Experimental: 1 to 2 g of hydroxyapatite (Biogel-HTP, Bio-Rad Laboratories, Inc.) was put into a 50 mL tube, and 20 mL of protein solution (1%, IXOS SCP5000, Nitta Gelatin Inc.) was added thereto, and the mixture was left to stand for 10 to 15 minutes, and then the mixture was separated by centrifugation at 3,000×g for 2 minutes to remove a supernatant. Next, after the centrifugation, 20 mL of stain solution (5 g of instant coffee, two tea bags and two green tea bags were put into 110 mL of water, and the mixture was heated by a microwave oven for 2 minutes. Then the mixture was cooled down at room temperature with shaking for 3 hours to one night. Then the mixture was filtered by a 200 mesh filter. The stain liquid was obtained like this.) was mixed with the precipitated apatite, and the mixture was left to stand for 10 to 15 minutes, and then the mixture was separated by centrifugation (2,500 rpm, 2 minutes) to remove a supernatant. Then, after centrifugation, 20 mL of artificial saliva (20 mM HEPES-KOH pH 7.0, 1.5 mM CaCl2 and 0.9 mM KH2PO4) was added into the precipitated apatite, and the mixture was left to stand for 10 to 15 minutes, and then the mixture was separated by centrifugation (2,500 rpm, 2 minutes). After removal of a supernatant from the mixture, the precipitated apatite was dried.
20 mg of the tea-stained dry apatite is weighed, and 0.3 mL of solution was added thereto, which contains H2O2 at various concentrations and, as appropriate, various phosphate polymers, NaOH and other substances, and then the mixture was left to stand at a certain temperature for a certain time. Then the apatite was precipitated by centrifugation (3,000×g, 15 seconds), and a supernatant was removed from the mixture, and then the apatite was mixed well with 1 mL of water to wash. Further, subsequent washing procedure was repeated four times. After that, the apatite was suspended in 200 μL of water, and the suspension was poured into a well of a 96 well microtiter plate. The 96 well microtiter plate was scanned from the bottom by a scanner (Epson GT8300). The image was inverted to be negative, and brightness analysis was performed by means of imageJ (free software), and then the residual ratio of stain was calculated.

Structure (SMILES): NC(N)=O.OO [carbamide peroxide]
- Residual ratio of stain (15% carbamide peroxide alone, NaOH 0 N, pH 7.0, 45 °C, 30 min): 89.86%
- Residual ratio of stain (15% carbamide peroxide alone, NaOH 0 N, pH 7.0, 45 °C, 60 min): 87.73%
- Residual ratio of stain (15% carbamide peroxide alone, NaOH 1 N, pH 11.4, 45 °C, 30 min): 27.69%
- Residual ratio of stain (15% carbamide peroxide alone, NaOH 1 N, pH 11.4, 45 °C, 60 min): 30.39%
- Residual ratio of stain (30% carbamide peroxide alone, NaOH 0 N, pH 7.1, 45 °C, 60 min): 60.96%
- Residual ratio of stain (30% carbamide peroxide alone, NaOH 1 N, pH 10.9, 45 °C, 30 min): 19.01%
- Residual ratio of stain (30% carbamide peroxide alone, NaOH 1 N, pH 10.9, 45 °C, 60 min): 20.22%
- Residual ratio of stain (highest whitening effect) (carbamide peroxide only, 30%, alkaline condition, treatment time 60 minutes (so in the source)): 19.01%

Structure (SMILES): OO [hydrogen peroxide]
- Residual ratio of stain (3.5% H2O2, 0% ultraphosphate, pH 7.5, 42 °C, 10 min): 98.15%
- Residual ratio of stain (3.5% H2O2, 0% ultraphosphate, pH 7.5, 42 °C, 30 min): 96.80%
- Residual ratio of stain (3.5% H2O2, 0% ultraphosphate, pH 7.5, 42 °C, 60 min): 94.89%
- Residual ratio of stain (3.5% H2O2, 0% ultraphosphate, pH 7.5, 42 °C, 180 min): 88.78%
- Residual ratio of stain (3.5% H2O2 alone, alkaline (1), pH 11.6, 45 °C, 30 min): 49.23%
- Residual ratio of stain (20% hydrogen peroxide under alkaline condition, 30 minutes treatment): 40.08%

From US20130189200A1, “Oral Composition For Removing Tooth Stain” (REGENETISS, INC., priority 2010, published 2013)
